According to ChEMBL document CHEMBL1201862, “PubChem BioAssay data set” (2004):
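Exposure lasted 48 hours, with cells grown in 96-well plates and compounds tested at five concentrations. GI50 marks 50% less growth.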 The source made the active and inactive calls. No stated cut-off is given here; in the data, active = GI50 up to about 1.1 µM and inactive = higher.

Experiments:
Assay in all cases: inhibition of tumour cell growth, NCI panel, 48 h
Malme-3M = system: Malme-3M
NCI-H522 = system: NCI-H522
SR = system: SR
DMS-114 = system: DMS-114
XF498 = system: XF498
ACHN = system: ACHN
TK-10 = system: TK-10
A498 = system: A498
SF-295 = system: SF-295
SF-539 = system: SF-539
NCI-H226 = system: NCI-H226
DU-145 = system: DU-145
CAKI-1 = system: CAKI-1
MDA-MB-435 = system: MDA-MB-435
NCI/ADR-RES = system: NCI/ADR-RES
Hs-578T = system: Hs-578T
MDA-MB-231 = system: MDA-MB-231
HOP-62 = system: HOP-62
RPMI-8226 = system: RPMI-8226
BT-549 = system: BT-549

Row | Structure (SMILES) | GI50 (Malme-3M) | GI50 (NCI-H522) | GI50 (SR) | GI50 (DMS-114) | GI50 (XF498) | GI50 (ACHN) | GI50 (TK-10) | GI50 (A498) | GI50 (SF-295) | GI50 (SF-539) | GI50 (NCI-H226) | GI50 (DU-145) | GI50 (CAKI-1) | GI50 (MDA-MB-435) | GI50 (NCI/ADR-RES) | GI50 (Hs-578T) | GI50 (MDA-MB-231) | GI50 (HOP-62) | GI50 (RPMI-8226) | GI50 (BT-549)
1 | CCOC(=O)C(C)OC(=O)c1ccc(C)cc1 (stereo not drawn) | > 100 µM (inactive) | > 100 µM (inactive) | > 100 µM (inactive) | > 100 µM (inactive) | 84.3 µM (inactive) | > 100 µM (inactive) | > 100 µM (inactive) | > 100 µM (inactive) | > 10 µM (inactive) | > 100 µM (inactive) | – | – | – | – | – | – | – | – | – | –
2 | COc1ccc2oc3c(ccc[n+]3C)c(=O)c2c1 | > 100 µM (inactive) | > 100 µM (inactive) | > 100 µM (inactive) | – | – | > 100 µM (inactive) | > 100 µM (inactive) | > 100 µM (inactive) | > 100 µM (inactive) | > 100 µM (inactive) | > 100 µM (inactive) | > 100 µM (inactive) | > 100 µM (inactive) | > 100 µM (inactive) | > 100 µM (inactive) | > 100 µM (inactive) | > 100 µM (inactive) | > 100 µM (inactive) | – | –
3 | Nc1nc(N)nc(-c2ccccc2NS(=O)(=O)c2ccc([N+](=O)[O-])cc2)n1 | > 100 µM (inactive) | 55.8 µM (inactive) | – | 25.8 µM (inactive) | 18.2 µM (inactive) | – | – | > 100 µM (inactive) | 99.1 µM (inactive) | > 100 µM (inactive) | 61.2 µM (inactive) | – | – | – | 17.3 µM (inactive) | – | – | > 100 µM (inactive) | 45.9 µM (inactive) | –
4 | O=C(Nc1ccc(I)cc1C(=O)NCCO)c1cccs1 | – | > 100 µM (inactive) | 49.7 µM (inactive) | – | – | > 100 µM (inactive) | – | – | > 100 µM (inactive) | > 100 µM (inactive) | > 100 µM (inactive) | – | > 100 µM (inactive) | > 100 µM (inactive) | > 100 µM (inactive) | – | – | > 100 µM (inactive) | 53.5 µM (inactive) | > 100 µM (inactive)
5 | COc1ccc2c(=O)c(O)c(-c3ccc(OC)c(OC)c3)oc2c1 | 15.1 µM (inactive) | 3.13 µM (inactive) | 4.08 µM (inactive) | – | – | 3.54 µM (inactive) | 4.91 µM (inactive) | 4.97 µM (inactive) | 10.1 µM (inactive) | – | – | 4.04 µM (inactive) | 3.44 µM (inactive) | 4.51 µM (inactive) | 2.23 µM (inactive) | – | 4.8 µM (inactive) | 3.98 µM (inactive) | 4.09 µM (inactive) | –
6 | COc1nc(Cl)nc(N[C@H](C)c2c3ccccc3cc3ccccc23)n1 | – | 7.6 µM (inactive) | – | – | – | 17.8 µM (inactive) | 0.807 µM (active) | < 0.01 µM (active) | 15.6 µM (inactive) | 17.8 µM (inactive) | 13.1 µM (inactive) | 12.4 µM (inactive) | 11.6 µM (inactive) | 4.31 µM (inactive) | 14.2 µM (inactive) | 7.69 µM (inactive) | 13.9 µM (inactive) | 14.9 µM (inactive) | 5.3 µM (inactive) | 18 µM (inactive)
7 | COC1=CC(=O)c2c(c(COC(C)=O)cn2C)C1=O | 0.0343 µM (active) | 0.0158 µM (active) | 0.211 µM (active) | – | – | 0.0306 µM (active) | 0.0408 µM (active) | 0.244 µM (active) | 0.0286 µM (active) | 0.138 µM (active) | 0.137 µM (active) | 0.0457 µM (active) | 0.0405 µM (active) | 0.13 µM (active) | 0.061 µM (active) | – | 0.389 µM (active) | – | 0.211 µM (active) | 0.0208 µM (active)
8 | CC(=O)Oc1c(OC(C)=O)c(-c2ccc(O)c(O)c2)c(O)c(O)c1-c1ccc(O)cc1 | – | 17.7 µM (inactive) | – | 21.3 µM (inactive) | 82.2 µM (inactive) | – | – | > 100 µM (inactive) | > 100 µM (inactive) | > 100 µM (inactive) | > 100 µM (inactive) | – | > 100 µM (inactive) | – | > 100 µM (inactive) | – | – | > 100 µM (inactive) | > 100 µM (inactive) | –
9 | CCN(CC)CCCNC(=O)c1ccccc1Nc1c(Cl)cccc1Cl | – | – | 10.8 µM (inactive) | 12.2 µM (inactive) | 2.26 µM (inactive) | 10.2 µM (inactive) | 11.3 µM (inactive) | – | – | 11.4 µM (inactive) | 12.4 µM (inactive) | – | – | – | – | – | – | 11.9 µM (inactive) | 5.68 µM (inactive) | –
10 | O=C1CN2Cc3cc(N4CCOCC4)ccc3N=C2N1 | 89.1 µM (inactive) | – | 66.1 µM (inactive) | – | – | – | > 100 µM (inactive) | 91 µM (inactive) | 38.6 µM (inactive) | – | 44.6 µM (inactive) | 49.5 µM (inactive) | 56.5 µM (inactive) | 22.9 µM (inactive) | 31.3 µM (inactive) | 23.8 µM (inactive) | 88.1 µM (inactive) | 47.1 µM (inactive) | 67 µM (inactive) | > 100 µM (inactive)
11 | COc1ccc2[nH]c(C(=O)N3CC(CCl)c4c3cc(N)c3ccccc43)cc2c1 (stereo not drawn) | – | – | < 0.01 µM (active) | – | – | < 0.01 µM (active) | < 0.01 µM (active) | 0.0116 µM (active) | < 0.01 µM (active) | < 0.01 µM (active) | < 0.0133 µM (active) | < 0.01 µM (active) | < 0.01 µM (active) | 0.0118 µM (active) | < 0.01 µM (active) | – | < 0.0204 µM (active) | < 0.01 µM (active) | 0.0122 µM (active) | < 0.0153 µM (active)
12 | Cc1cccc2sc(-c3ccc(O)cc3)nc12 | 16.9 µM (inactive) | 16.3 µM (inactive) | 22 µM (inactive) | – | – | 16.5 µM (inactive) | 22.5 µM (inactive) | 3.15 µM (inactive) | 14.6 µM (inactive) | 21.5 µM (inactive) | 14.8 µM (inactive) | 17.8 µM (inactive) | 16.5 µM (inactive) | 11 µM (inactive) | 19.3 µM (inactive) | – | 19.8 µM (inactive) | – | 20.9 µM (inactive) | 11.8 µM (inactive)
13 | O=C(O)CC/C(=N\Nc1nsc2ccccc12)c1ccccc1 | – | – | 24.9 µM (inactive) | 25.5 µM (inactive) | – | 70.6 µM (inactive) | > 100 µM (inactive) | – | – | > 100 µM (inactive) | – | – | – | – | – | – | – | 97.5 µM (inactive) | 18.5 µM (inactive) | –
